Assay results as given in US20020071842A1, “Soluble CD1 compositions and uses thereof” (priority 2000, published 2002).

Key:
[1] = system: human CD1d-restricted T cell clones; assay: Flow cytometric staining with lipid treated multimerized CD1d-Fc aggregates; type: cell-based; details: flow cytometry, human CD1d-Fc/Alexa 488 protein A aggregate, 40:1 lipid to fusion protein, compared with DMSO alone
Procedure: (§1) To facilitate binding to CD1 specific T cells for detection by flow cytometry, a highly multimerized form of the CD1d fusion protein was formed using fluorescently labeled protein A molecules. Protein A molecules spontaneously associate in solution at neutral pH with immunoglobulin Fc regions, forming complexes containing four Fc molecules and two protein A molecules (4+2 complexes, reference 2). The human CD1d-Fc fusion protein was incubated with Alexa 488 dye labeled protein A, and the 4+2 complexes purified by size exclusion chromatography on a Pharmacia Superose 6 column using PBS pH 7.2 as a running buffer. The purified 4+2 aggregates were concentrated to 100 μg/ml with ovalbumin as a carrier protein. The CD1d-Fc aggregate was then pre-incubated for 24 to 48 hours at 37° C. with antigenic glycolipids dissolved in DMSO at a 40:1 molar ratio of lipid to fusion protein, or with an equivalent volume of DMSO alone as a negative control. The T cell staining was performed at room temperature or 4° C. for 20 min, at a concentration of 40 μg/ml of the lipid or control treated CD1d-Fc aggregate.
To facilitate binding to CD1 specific T cells for detection by flow cytometry, a highly multimerized form of the CD1d fusion protein is formed using fluorescently labeled protein A molecules. Protein A molecules spontaneously associate in solution at neutral pH with immunoglobulin Fc regions, forming complexes containing four Fc molecules and two protein A molecules (4+2 complexes, Langone, J.J. et al, Molec. and Cell. Biochem, 65(2):159-70 (1985)). The human CD1d-Fc fusion protein was incubated with Alexa 488-dye labeled protein A, and the 4+2 complexes purified by size exclusion chromatography on a Phannacia Superose 6 column using PBS pH 7.2 as a running buffer. The purified 4+2 aggregates are concentrated to 100 μg/ml with ovalbumin as a carrier protein. The CD1d-Fc aggregate is then pre-incubated for 24 to 48 hours at 37° C. with antigenic glycolipids dissolved in DMSO at a 40:1 molar ratio of lipid to fusion protein, or with an equivalent volume of DMSO alone as a negative control. The T cell staining is performed at room temperature or 4° C. for 20 min, at a concentration of 40 μg/ml of the lipid or control treated CD1d-Fc aggregate.
Flow cytometric analysis of a CD1d-restricted T cell clone stained with the multimerized CD1d-Fc fusion protein (abbreviated as “hd(8)-fl”) was performed as follows. Staining with CD1d-Fc treated with lipid antigens dissolved in DMSO was compared with CD1d-Fc treated with DMSO alone as a negative control. The specific lipid antigen used were: aGalCer is α-galactosyl ceramide (KRN7000); aGlcCer is α-glucosyl ceramide; aManCer is α-mannosyl ceramide; bGalCer is β-galactosyl ceramide; Cer is ceramide (acylphytosphingolipid).
Flow cytometric analysis of a series of human T cell clones stained with the multimerized CD1d-Fc fusion protein, treated with α-GalCer or DMSO alone also was performed, including staining of two different CD1d-restricted (“NKT”) T cell clones DN2.B9 and DN1.10B3. Four other T cell clones that are not CD1d-restricted also were stained.

[2] = system: T cell lines and clones isolated from peripheral blood; assay: Functional analysis (cytokine secretion) of T cell lines and clones sorted with α-GalCer treated CD1d-Fc; type: cell-based, human; details: in the presence of antigen
Text: T cell lines and clones stained with the α-GalCer treated CD1d-Fc aggregates were isolated from peripheral blood by flow cytometric cell sorting and limiting dilution cloning, and cultured using standard techniques. […] Cytokine secretion was enhanced in the presence of α-GalCer.

[3] = system: T cells in PBMCs purified from a healthy donor; assay: Three color flow cytometric staining of PBMCs with lipid loaded CD1d-Fc aggregates; type: cell-based, human; details: CD1d-Fc aggregate treated with antigen, anti-CD3 and anti-CD161 co-staining
Procedure: as §1
To facilitate binding to CD1 specific T cells for detection by flow cytometry, a highly multimerized form of the CD1d fusion protein is formed using fluorescently labeled protein A molecules. […]

| Compound | staining of CD1d-restricted T cell clones by lipid treated CD1d-Fc aggregate ([1]; listed as aGalCer) | cytokine secretion in response to CD1d-transfected antigen presenting cells [2] | T cells stained relative to CD1d-Fc treated with DMSO alone [3] | T cells stained relative to the UPC10 negative control [3] | staining of CD1d-restricted T cell clones by lipid treated CD1d-Fc aggregate [1] |
| --- | --- | --- | --- | --- | --- |
| CCCCCCCCCCCCCCCCCCCCCCCCCC(=O)N[C@@H](CO[C@H]1O[C@H](CO)[C@H](O)[C@H](O)[C@H]1O)[C@H](O)[C@H](O)CCCCCCCCCCCCCC [α-GalCer, α-galactosylceramide] | positive staining | enhanced | about 6 fold | about 10 fold |  |
| unglycosylated ceramide |  |  |  |  | did not stain above background levels |
| β-galactosylceramide [β-GalCer] |  |  |  |  | did not stain above background levels |
